Patent publication US20110237541A1, “TRANSDERMALLY ADMINISTERED ALISKIREN” (priority 2008, published 2011)
Read-outs that look alike come from different tables or passages of the source.

Key:
[1] = test system: female double transgenic (dtg) rats; assay: Mean arterial pressure by telemetry in double transgenic rats; type: in vivo, rat; settings: for max MAP decrease: versus control group
Experimental: Female double transgenic (dtg) rats, which are transgenic for human renin and angiotensin (see, e.g., Bohlender et al., J AM SOC NEPHROL 11:2056 (2000)) were used. All animals were maintained under identical conditions and had free access to normal pelleted rat chow and water. Rats were initially treated with enalapril (1 mg/kg/day), starting 3 weeks after birth and continuing for 2 months. After approximately two weeks following cessation of enalapril treatment, the double transgenic rats are hypertensive, with mean arterial blood pressures in the range of 160-170 mmHg.
Transmitter implantation—The rats were anesthetized using isoflurane (via inhalation, 2-3%) The pressure transmitter was implanted under aseptic conditions into the peritoneal cavity with the sensing catheter placed in the descending aorta below the renal arteries pointing upstream. The transmitter was sutured to the abdominal musculature, the skin closed, and the rats were individually housed in a cage, placed on a telemetry receiver pad to enable collection of the blood pressure data during recovery from anesthesia and thereafter. The rats were singly caged for the duration of the recording of telemetry data.
Telemetry-System—Telemetry units were obtained from Data Sciences (St. Paul, Minn.). […] The tip of the catheter was filled with a viscous gel that prevents blood reflux and was coated with an antithrombogenic film. The implants (length=2.5 cm, diameter=1.2 cm) weighed 9 g and have a typical battery life of 6 months. A receiver platform (model RPC-1 from Data Sciences) connected the radio signal to digitized input that was sent to a dedicated personal computer. Arterial pressures were calibrated by using an input from an ambient-pressure reference (APR-1, Data Sciences). Systolic, mean, and diastolic blood pressures were expressed in millimeter of mercury (mmHg).
Drug administration—For oral dosing, aliskiren was dissolved in 0.5% methocel and administered via feeding tubes. The compound was dosed in a single bolus of 3 mg/5 ml/kg or 30 mg/5 ml/kg. After dosing, the rat was returned to the cage. Blood pressure data were collected up to 7 days after oral dosing.
For transdermal delivery, aliskiren was dissolved in 100% DMSO to be applied in a single application of 250 μl of solution. The rat was lightly sedated under 2.5% isoflurane anesthesia, and its back was shaved over a 4 cm^2 area. The animal was returned to the cage to recover from anesthesia. Twenty-four hours later, the rat was lightly sedated under 2.5% isoflurane anesthesia, and the shaved area disinfected with 3 passes of ethanol.
After evaporation of the ethanol, a volume of 250 μl of 100% DMSO only, or of the compound dissolved in a 100% DMSO solution was applied over the shaved area using a micropipette. After complete evaporation of the DMSO solution (within 5 min after application), an occlusive transparent, waterproof film (OpSite) was taped to the back of the animal over the shaved area, and a jacket was fitted on the animal. Isoflurane inhalation was stopped, and the animal individually caged. Blood pressure data was collected up to 5 days after application of the compound/DMSO solution.
Hemodynamic measurements—For oral delivery, double transgenic rats with implanted pressure transmitters were dosed by oral gavage with a single bolus of vehicle (5 ml/kg) or of the test substance (30 mg/5 ml/kg) (n=6 per group).
For transdermal delivery, double transgenic rats with implanted pressure transmitters were dosed with a single application of vehicle (250 μl of 100% DMSO; n=4) or of the test substance (10 mg in 250 μl of 100% DMSO, i.e. 36 mg/kg; n=5).
The mean arterial blood pressure was continuously monitored. The effect of the test substance is expressed as maximal decrease of mean arterial pressure (MAP) in the treated group versus the control group. […]

[2] = test system: plasma renin activity (PRA); assay: Plasma renin activity (PRA) after TD delivery in double transgenic rats; type: in vivo; settings: Rattus norvegicus, dTG rats, 4 h after delivery
Experimental: Pharmacokinetics and biomarkers—A blood sample (0.3 ml) was taken by tail bleed or jugular intravenous 4 h and 24 h after TD delivery to determine compound levels and plasma renin activity (PRA).

[3] = Bioavailability of aliskiren after oral and transdermal administration in Sprague-Dawley rats (plasma LC-MS/MS); type: in vivo, rat; settings: male SD rats; for AUC: Sprague-Dawley, rat, plasma
Experimental: Male Sprague-Dawley rats (300-400 g body weight) were purchased from Charles River Canada Corporation (188 Rue LaSalle, St-Constant, QC, J5A 1Y2, Canada). […] For oral dosing, aliskiren was dissolved in 0.5% methocel and administered via feeding tubes. The compound was dosed in a single bolus of 3 mg/5 ml/kg or 25 mg/5 ml/kg. For intravenous (IV) […] dosing, aliskiren was dissolved in 60% PEG 200 and administered in a single bolus at 0.5 mg/1 ml/kg. For transdermal delivery, aliskiren was dissolved in 100% DMSO, and applied (single application of 250 μl of solution) onto the shaved skin of the rat. The rat was lightly sedated under 2.5% isoflurane anesthesia, and its back was shaved over a 4 cm^2 area. The animal was returned to its cage to recover from anesthesia. Twenty-four hours later, the rat was lightly sedated under 2.5% isoflurane anesthesia, and the shaved area was disinfected with three passes of ethanol. After evaporation of the ethanol, a volume of […] of 100% DMSO only, or of the compound dissolved in a 100% DMSO solution was applied over the shaved area using a micropipette. After complete evaporation of the DMSO solution (within 5 min after application), an occlusive transparent, waterproof film (OpSite) was taped to the back of the animal over the shaved area, and a jacket was fitted on the animal. Isoflurane inhalation was stopped, and the animal individually caged. The jacket was removed four hours after application of the compound solution.
A blood sample (0.4 ml) was taken by tail or jugular vein bleed for the determination of compound levels, 1 h, 2 h, 4 h, 6 h, 8 h, 10 h and 24 h after either oral gavage or application on the skin of the compound dissolved in 100% DMSO solution. The animal was euthanized after the 24 h time point. […] The plasma was separated by centrifugation and stored at −20° C. pending analysis. Plasma samples were analyzed for aliskiren concentrations using liquid chromatography coupled to mass spectrometry (LC-MS/MS).

[4] = AUC of aliskiren after PO or TD delivery in telemetrized female dTG rats; type: in vivo, rat; settings: for AUC(0-t): double transgenic (dTG, human renin and angiotensin), rat, read-out: AUC24 h
Experimental: The rat was lightly sedated under 2.5% isoflurane anesthesia, and its back was shaved over a 4 cm^2 area.
After complete evaporation of the DMSO solution (within 5 min after application), an occlusive transparent, waterproof film (OpSite) was taped to the back of the animal over the shaved area, and a jacket was fitted on the animal. Isoflurane inhalation was stopped, and the animal individually caged.

[5] = TD, 36 mg/kg single application

AUC ([3]; topical, TD, 2.9 mg/kg): 0.084 µM·h
AUC ([3]; topical, TD, 29 mg/kg): 0.25 µM·h
AUC ([3]; PO, 3 mg/kg): 0.0021 µM·h
AUC ([3]; PO, 25 mg/kg): 0.058 µM·h
F ([3]; PO, 3 mg/kg): 0.1%
F ([3]; PO, 25 mg/kg): 0.43%
F ([3]; TD, 2.9 mg/kg): 5.4%
F ([3]; TD, 29 mg/kg): 1.6%
Compound: COCCCOc1cc(C[C@@H](C[C@H](N)[C@@H](O)C[C@H](C(=O)NCC(C)(C)C(N)=O)C(C)C)C(C)C)ccc1OC [aliskiren, (2S,4S,5S,7S)-5-amino-N-(2-carbamoyl-2,2-dimethylethyl)-4-hydroxy-7-{[4-methoxy-3-(3-methoxypropoxy)phenyl]methyl}-8-methyl-2-(propan-2-yl)nonanamide]
ABC36 h ([1]; PO, 30 mg/kg single bolus): 630 mmHg * hr
duration (of MAP reduction) ([1]; PO, 30 mg/kg single bolus): 1.5 days
max MAP decrease ([1]; PO, 30 mg/kg single bolus): 40 mmHg
ABC36 h [1, 5]: 1213 mmHg * hr
duration (of MAP reduction) ([1]; TD, 36 mg/kg single application, 36 mg/kg): >3 days
max MAP decrease [1, 5]: 40 mmHg
inhibition at 36 mg/kg [2]: 97%
increase of AUC, transdermal versus oral delivery ([4]; at the dose used (TD 36 mg/kg vs PO 30 mg/kg)): 70 fold
AUC(0-t) ([4]; blood, topical, TD, 36 mg/kg): 1.5 µM·h
AUC(0-t) ([4]; in vivo, PO, 30 mg/kg): < 0.021 µM·h
